Reference: US6706709B2, “Indolinone derivatives as protein kinase/phosphatase inhibitors” (Sugen, Inc., priority 2000, dated 2004)

How the values were obtained:
GST-Flk1 = GST-Flk1 (UniProt P35918); test: GST-FLK-1 bioassay (bio flkGST); type: biochemical
How it was run: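 ELISA with Sf9-expressed GST-Flk1cd (5 ng/well) phosphorylating plate-coated poly(Glu,Tyr) 4:1 in Hepes pH 7.5 with MnCl2 and ATP (2 μM as 4× stock), 15 min at room temperature; EDTA stop. Phosphotyrosine detected with PY99-HRP and ABTS at 410 nm.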

EGF Receptor = biological target: T1, EGF Receptor (Homo sapiens, UniProt P00533); test: bio EGF (EGF Receptor ELISA); type: biochemical
T1 construct: expressed in transfected cells; host or cells: NIH 3T3/C7 (mouse fibroblasts engineered to express human EGF-R)
How it was run: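 Cells engineered to express human EGFR, seeded in 0.5% serum for ~40 h, then exposed to drug (stock diluted to 1:200 final, 1% DMSO) before 5 min EGF stimulation at 25 nM final. Lysates captured on anti-EGFR-coated plates, and phosphotyrosine detected by anti-pTyr/HRP ELISA at 410 nm. Percent inhibition calculated relative to control wells after negative-control subtraction.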

T1 sequence (P00533 25-1210): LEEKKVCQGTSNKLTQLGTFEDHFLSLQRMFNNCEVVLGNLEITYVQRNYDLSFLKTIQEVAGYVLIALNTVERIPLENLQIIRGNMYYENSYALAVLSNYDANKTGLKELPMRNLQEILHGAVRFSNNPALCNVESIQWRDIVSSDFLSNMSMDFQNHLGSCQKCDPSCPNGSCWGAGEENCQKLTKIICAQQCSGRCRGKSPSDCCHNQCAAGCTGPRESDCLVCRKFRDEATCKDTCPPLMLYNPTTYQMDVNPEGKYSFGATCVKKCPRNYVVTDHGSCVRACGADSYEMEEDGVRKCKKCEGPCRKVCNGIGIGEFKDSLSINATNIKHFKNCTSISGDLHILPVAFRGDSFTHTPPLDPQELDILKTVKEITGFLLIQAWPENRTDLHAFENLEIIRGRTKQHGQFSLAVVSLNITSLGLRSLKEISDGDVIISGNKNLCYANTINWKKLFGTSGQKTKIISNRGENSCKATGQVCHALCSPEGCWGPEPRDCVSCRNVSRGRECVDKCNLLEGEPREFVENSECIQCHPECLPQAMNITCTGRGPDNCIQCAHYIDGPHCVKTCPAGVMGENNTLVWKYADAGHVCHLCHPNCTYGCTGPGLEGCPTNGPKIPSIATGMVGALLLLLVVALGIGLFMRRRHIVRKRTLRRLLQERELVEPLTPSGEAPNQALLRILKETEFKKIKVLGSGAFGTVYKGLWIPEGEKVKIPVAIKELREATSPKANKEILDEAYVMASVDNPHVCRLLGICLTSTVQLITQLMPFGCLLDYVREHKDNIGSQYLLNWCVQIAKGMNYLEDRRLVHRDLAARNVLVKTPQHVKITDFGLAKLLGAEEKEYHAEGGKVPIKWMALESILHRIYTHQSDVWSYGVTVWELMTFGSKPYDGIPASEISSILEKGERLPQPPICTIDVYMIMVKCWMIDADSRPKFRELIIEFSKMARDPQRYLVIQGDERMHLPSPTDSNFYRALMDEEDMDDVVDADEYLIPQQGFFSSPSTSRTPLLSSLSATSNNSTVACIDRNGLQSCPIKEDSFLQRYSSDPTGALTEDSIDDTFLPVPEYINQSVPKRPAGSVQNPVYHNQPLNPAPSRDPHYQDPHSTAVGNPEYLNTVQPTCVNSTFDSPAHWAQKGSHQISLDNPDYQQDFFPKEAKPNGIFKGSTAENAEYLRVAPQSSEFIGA

SMILES | IC50 (GST-Flk1) [nM] | IC50 (EGF Receptor) [nM]
CN(c1cccc(Cl)c1)S(=O)(=O)c1ccc2c(c1)C(=Cc1cc3cc(OCCN4CCOCC4)ccc3[nH]1)C(=O)N2 [IN-060, 3-[5-(2-morpholin-4-yl-ethoxy)-1H-indol-2-ylmethylene]-2-oxo-2,3-dihydro-1H-indole-5-sulfonic acid (3-chloro-phenyl)-methyl-amide] | 8550 | > 20000
Cc1[nH]c2ccccc2c1C=C1C(=O)Nc2ccc(S(=O)(=O)N(C)C)cc21 [IN-073, 3-(2-methyl-1H-indol-3-ylmethylene)-2-oxo-2,3-dihydro-1H-indole-5-sulfonic acid dimethylamide] | > 20000 | > 100000
CC(C)NS(=O)(=O)c1ccc2c(c1)C(=Cc1cc3cc(OCCN4CCCC4)ccc3[nH]1)C(=O)N2 [IN-043, 2-oxo-3-[5-(2-pyrrolidin-1-yl-ethoxy)-1H-indol-2-ylmethylene]-2,3-dihydro-1H-indole-5-sulfonic acid isopropylamide] | 270 | 4350
O=C1Nc2ccc(S(=O)(=O)N3CCc4ccccc43)cc2C1=Cc1cc2cc(OCCN3CCOCC3)ccc2[nH]1 [IN-058, 5-(2,3-dihydro-indole-1-sulfonyl)-3-[5-(2-morpholin-4-yl-ethoxy)-1H-indol-2-ylmethylene]-1,3-dihydro-indol-2-one] | 8490 | > 20000
CNS(=O)(=O)c1ccc2c(c1)C(=Cc1ccc3[nH]ccc3c1)C(=O)N2 [IN-070, 3-(1H-indol-5-ylmethylene)-2-oxo-2,3-dihydro-1H-indole-5-sulfonic acid methylamide] | 2330 | > 100000
CN(c1cccc(Cl)c1)S(=O)(=O)c1ccc2c(c1)C(=Cc1cc3cc(OCCN4CCCC4)ccc3[nH]1)C(=O)N2 [IN-048, 2-oxo-3-[5-(2-pyrrolidin-1-yl-ethoxy)-1H-indol-2-ylmethylene]-2,3-dihydro-1H-indole-5-sulfonic acid (3-chloro-phenyl)-methyl-amide] | 1160 | 2130
O=C1Nc2ccc(S(=O)(=O)Nc3cccc(Cl)c3)cc2C1=Cc1cc2cc(OCCN3CCCC3)ccc2[nH]1 [IN-047, 2-oxo-3-[5-(2-pyrrolidin-1-yl-ethoxy)-1H-indol-2-ylmethylene]-2,3-dihydro-1H-indole-5-sulfonic acid (3-chloro-phenyl)-amide] | 390 | 870
O=C1Nc2ccc(S(=O)(=O)Nc3cccc(Cl)c3)cc2C1=Cc1cc2cc(OCCN3CCOCC3)ccc2[nH]1 [IN-059, 3-[5-(2-morpholin-4-yl-ethoxy)-1H-indol-2-ylmethylene]-2-oxo-2,3-dihydro-1H-indole-5-sulfonic acid (3-chloro-phenyl)-amide] | 630 | > 20000
O=C1Nc2cc(-c3ccccc3)ccc2C1=Cc1cc2cc(OCCN3CCCC3)ccc2[nH]1 [IN-015, 6-phenyl-3-[5-(2-pyrrolidin-1-yl-ethoxy)-1H-indol-2-ylmethylene]-1,3-dihydro-indol-2-one] | 990 | 70600
O=C1Nc2cc(C(=O)O)ccc2C1=Cc1cc2cc(OCCN3CCCC3)ccc2[nH]1 [IN-023, 2-oxo-3-[5-(2-pyrrolidin-1-yl-ethoxy)-1H-indol-2-ylmethylene]-2,3-dihydro-1H-indole-6-carboxylic acid] | 240 | > 20000
COc1cccc(-c2ccc3c(c2)NC(=O)C3=Cc2cc3cc(OCCN4CCOCC4)ccc3[nH]2)c1 [IN-036, 6-(3-methoxy-phenyl)-3-[5-(2-morpholin-4-yl-ethoxy)-1H-indol-2-ylmethylene]-1,3-dihydro-indol-2-one] | > 20000 | > 20000
CN(C)S(=O)(=O)c1ccc2c(c1)C(=Cc1ccc3[nH]ccc3c1)C(=O)N2 [IN-074, 3-(1H-indol-5-ylmethylene)-2-oxo-2,3-dihydro-1H-indole-5-sulfonic acid dimethylamide] | 1580 | > 100000
